Measurements from patent US8283323B2, “Withanolide compounds as inhibitors of fibrosis and identification of molecular targets for anti-fibrotic drug development” (University of Kentucky Research Foundation, priority 2006, dated 2012).

Assays:
[1] = test system: cornea injured by 0.1 N sodium hydroxide (corneal opacity, neovascularization); assay: alkali burn corneal injury model, digital images of corneas; assay type: in vivo, C57BL6 mice; conditions: 2.5 mg/kg/d i.p. daily for 6 d after alkali burn, versus vehicle (DMSO)
Procedure: (§1) The corneas of C57BL6 mice under anesthesia were injured by application of 0.1 N sodium hydroxide and subsequently the epithelial cell layer from the cornea and limbus was removed by scraping. Withaferin A (WA) (2.5 mg/kg/d; 4 mice) or vehicle (DMSO; 4 mice) was provided daily thereafter by i.p. injection for 6 d. Digital images of the corneas were obtained to assess the extent of tissue pathology. […] These compelling results invoke the query whether WA targets the UPP in vivo. Mice (4 per group) were injured and treated for the first 4 days with a different dose of WA or vehicle daily by i.p. injection. On day 7, mice were sacrificed and corneal buttons were isolated from injured healing corneas; equal amounts of protein from each group were analyzed by western blotting. Uninjured fellow eyes from vehicle-treated mice served as controls.

native I-kappa-B-alpha = assay: western blotting of corneal buttons from injured healing corneas: I-kappa-B-alpha; assay type: in vivo, mice; conditions: different doses i.p. daily for first 4 days, corneas taken day 7, western blot
Procedure: as §1

HO-1 = assay: western blotting of corneal buttons from injured healing corneas: HO-1; assay type: in vivo, mice; conditions: i.p. daily for first 4 days, corneas taken day 7, western blot
Procedure: as §1

[2] = test system: ubiquitinated transketolase (70 kDa ubiquitinated protein); assay: immunoblotting / Coomassie blue staining of corneal protein, angioinflammation corneal model: ubiquitinated transketolase; assay type: in vivo, mice
Procedure: (§2) To investigate the levels and timing of expression of TKT we performed time-course experiments using the angioinflammation corneal model of tissue repair. Groups of mice ([…]) were injured and treated every day with vehicle (Veh), 2.5 mg/kg/d WA or 2.0 mg/kg/d epoxomicin (20S proteasome inhibitor) and sacrificed on day 4 and 6 post-inflammation. In a similar experiment, mice were treated every day with vehicle or 2.5 mg/kg/d WA and sacrificed on days 3 and 5 post-injury. Equal amounts of protein from pooled samples of each group were subjected to immunoblotting or Coomassie blue staining after fractionation on 4-20% gradient polyacrylamide gels (BioRad).
(§3) The western blots of the corneal samples were re-probed with an anti-mouse TKT antibody. […] Because of the strong Ub-immunoreactivity of TKT in injured corneas, we speculate that this protein's N-terminal antigenic site is being masked by ubiquitination in the injury-related samples (the TKT antibody reacts with the N-terminal 20-amino acid portion of native TKT).

transketolase (TKT) = assay: western blot with anti-mouse TKT antibody and immunohistochemical analysis of mouse eyes; assay type: in vivo, mice; conditions: injured corneas; for TKT detected by anti-mouse TKT antibody on western blot (longer film exposure): WA 2.5 mg/kg/d or epoxomicin 2.0 mg/kg/d, not detected in vehicle
Procedure: as §2, §3
To investigate the localization of TKT, immunohistochemical analysis of mouse eyes was conducted. TKT expression is localized to the epithelium of uninjured mouse eyes, whereas TKT expression in corneas of 4 d vehicle-treated mice is almost undetectable.

[3] = test system: ubiquitin proteasome pathway (UPP); assay: UPP functions in the alkali burn injury model of corneal angiofibrotic disease; assay type: in vivo
Excerpt: The abundant corneal protein tissue transketolase (TKT) is believed to play an important role in corneal homeostasis. TKT is also a target of the UPP and its reduced expression is believed to contribute to corneal fibrosis. In the present invention, targeting the UPP in injured tissue can redirect the fibrotic repair process to acquire regenerative healing. Withanolides and related compounds, such as withaferin A, withanolide D and ixocarpalactone, are small molecule inhibitors that have potent UPP-targeting activity. […] There is also a reduction in the levels of ubiquitinated transketolase (TKT), an abundant corneal protein implicated in fibrogenesis.

| Structure (SMILES) | corneal opacity [1] | neovascularization (growth of new blood vessels in cornea) [1] | corneal expression of native I-kappa-B-alpha (native I-kappa-B-alpha) | HO-1 expression in cornea (HO-1) | expression of 70 kDa ubiquitinated protein (UbTKT) in cornea, ubiquitin immunoblot ([2]; 2.5 mg/kg/d every day, injured corneas, versus vehicle) | levels of the 70 kDa protein by Coomassie blue staining ([2]; uninjured, vehicle and WA-treated samples, 3-, 5-, 4- and 6-day time-points) | TKT staining in cornea, immunohistochemical analysis (transketolase (TKT); 4 d, compared with uninjured and vehicle-treated) | TKT detected by anti-mouse TKT antibody on western blot (longer film exposure) (transketolase (TKT)) | UPP functions [3] |
| --- | --- | --- | --- | --- | --- | --- | --- | --- | --- |
| CC1=C(CO)C(=O)O[C@@H]([C@@H](C)[C@H]2CC[C@H]3[C@@H]4C[C@H]5O[C@]56[C@@H](O)C=CC(=O)[C@]6(C)[C@H]4CC[C@]23C)C1 [WA, Withaferin A] | dramatically reduced | dramatically reduced | dose-dependently inhibits | potently downregulated HO-1 expression to almost undetectable levels | abundantly expressed in vehicle-treated mouse corneas compared to corneas from WA-treated mice | not significantly altered | present, although at levels lower than that of uninjured cornea | presence of the TKT | potent downregulation |
| CC[C@H](C)[C@H](NC(=O)[C@H]([C@@H](C)CC)N(C)C(C)=O)C(=O)N[C@H](C(=O)N[C@@H](CC(C)C)C(=O)[C@@]1(C)CO1)[C@@H](C)O [epoxomicin, reference compound] |  |  |  |  |  |  |  | presence of the TKT |  |
